Results taken from patent publication US9708318B2, “Bicyclic heterocycles as FGFR4 inhibitors” (Incyte Corporation, priority 2015, dated 2017).
Read-outs that look alike come from different tables or passages of the source.

Assays:
[1] = target: FGFR2 (Homo sapiens (Human), UniProt P21802); test: FGFR Enzymatic Assay (FRET peptide phosphorylation), FGFR2; format: biochemical
Protocol: (§1) The inhibitor potency of the exemplified compounds was measured in an enzyme assay that measures peptide phosphorylation using FRET measurements to detect product formation. Inhibitors were serially diluted in DMSO and a volume of 0.5 μL was transferred to the wells of a 384-well plate.
(§2) The enzymes were purchased from Millipore or Invitrogen.
(§3) GraphPad prism3 was used to analyze the data.

[2] = target: FGFR4 (Homo sapiens (Human), UniProt P22455); test: FGFR Enzymatic Assay (FRET peptide phosphorylation), FGFR4; format: biochemical; details: for FGFR1/FGFR4 IC50 ratio / FGFR2/FGFR4 IC50 ratio / FGFR3/FGFR4 IC50 ratio: FGFR4 selectivity
FGFR4, sequence (P22455 22-802): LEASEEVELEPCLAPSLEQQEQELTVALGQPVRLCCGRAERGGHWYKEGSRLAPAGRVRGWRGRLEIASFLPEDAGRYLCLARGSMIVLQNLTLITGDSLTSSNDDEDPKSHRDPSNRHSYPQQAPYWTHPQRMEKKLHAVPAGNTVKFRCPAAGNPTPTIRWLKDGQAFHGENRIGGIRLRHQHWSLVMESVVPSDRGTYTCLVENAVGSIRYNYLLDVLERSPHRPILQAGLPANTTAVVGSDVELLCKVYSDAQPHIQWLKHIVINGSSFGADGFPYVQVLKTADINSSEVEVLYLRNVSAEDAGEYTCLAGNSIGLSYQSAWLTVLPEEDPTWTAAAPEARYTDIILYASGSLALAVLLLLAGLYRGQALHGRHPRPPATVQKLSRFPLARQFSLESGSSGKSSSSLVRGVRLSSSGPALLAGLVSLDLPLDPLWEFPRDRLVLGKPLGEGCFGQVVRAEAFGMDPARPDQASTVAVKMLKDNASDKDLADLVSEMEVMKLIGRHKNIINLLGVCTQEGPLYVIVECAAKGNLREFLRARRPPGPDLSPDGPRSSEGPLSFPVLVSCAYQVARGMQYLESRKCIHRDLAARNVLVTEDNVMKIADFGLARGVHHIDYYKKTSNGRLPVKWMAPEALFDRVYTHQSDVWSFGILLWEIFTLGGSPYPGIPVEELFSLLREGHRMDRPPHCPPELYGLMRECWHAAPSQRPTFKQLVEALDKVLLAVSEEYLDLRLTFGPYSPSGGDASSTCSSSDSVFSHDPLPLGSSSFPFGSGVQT
Protocol: as §1, §2, §3

[3] = target: FGFR3 enzyme (Homo sapiens (Human), UniProt P22607); test: FGFR Enzymatic Assay (FRET peptide phosphorylation), FGFR3; format: biochemical; details: for FGFR1/FGFR3 IC50 ratio / FGFR4/FGFR3 IC50 ratio: FGFR3 selectivity; for IC50: read-out: FGFR3 IC50
FGFR3 enzyme, sequence (P22607 23-806): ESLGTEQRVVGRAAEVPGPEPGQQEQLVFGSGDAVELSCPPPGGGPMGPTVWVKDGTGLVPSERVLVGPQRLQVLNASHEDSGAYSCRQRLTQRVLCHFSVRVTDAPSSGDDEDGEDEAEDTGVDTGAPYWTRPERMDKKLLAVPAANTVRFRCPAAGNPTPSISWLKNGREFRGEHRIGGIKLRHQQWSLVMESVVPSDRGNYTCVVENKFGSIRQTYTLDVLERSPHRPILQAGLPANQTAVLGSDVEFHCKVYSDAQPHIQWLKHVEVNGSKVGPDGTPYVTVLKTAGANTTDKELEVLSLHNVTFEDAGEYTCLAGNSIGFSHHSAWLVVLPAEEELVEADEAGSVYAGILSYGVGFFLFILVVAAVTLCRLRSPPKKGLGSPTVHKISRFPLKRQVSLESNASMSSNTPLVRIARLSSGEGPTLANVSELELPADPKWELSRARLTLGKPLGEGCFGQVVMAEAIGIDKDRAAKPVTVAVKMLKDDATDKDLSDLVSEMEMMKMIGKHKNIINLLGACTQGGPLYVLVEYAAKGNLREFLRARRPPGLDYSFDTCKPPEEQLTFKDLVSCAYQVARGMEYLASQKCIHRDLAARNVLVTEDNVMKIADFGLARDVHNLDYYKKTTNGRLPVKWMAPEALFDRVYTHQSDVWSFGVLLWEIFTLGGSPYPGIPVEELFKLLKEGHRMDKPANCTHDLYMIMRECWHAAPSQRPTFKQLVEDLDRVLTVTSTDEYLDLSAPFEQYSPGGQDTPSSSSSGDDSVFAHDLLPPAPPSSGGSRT
Protocol: as §1, §3

[4] = target: FGFR1 (Homo sapiens (Human), UniProt P11362); test: FGFR Enzymatic Assay (FRET peptide phosphorylation), FGFR1
FGFR1, sequence (P11362 22-822): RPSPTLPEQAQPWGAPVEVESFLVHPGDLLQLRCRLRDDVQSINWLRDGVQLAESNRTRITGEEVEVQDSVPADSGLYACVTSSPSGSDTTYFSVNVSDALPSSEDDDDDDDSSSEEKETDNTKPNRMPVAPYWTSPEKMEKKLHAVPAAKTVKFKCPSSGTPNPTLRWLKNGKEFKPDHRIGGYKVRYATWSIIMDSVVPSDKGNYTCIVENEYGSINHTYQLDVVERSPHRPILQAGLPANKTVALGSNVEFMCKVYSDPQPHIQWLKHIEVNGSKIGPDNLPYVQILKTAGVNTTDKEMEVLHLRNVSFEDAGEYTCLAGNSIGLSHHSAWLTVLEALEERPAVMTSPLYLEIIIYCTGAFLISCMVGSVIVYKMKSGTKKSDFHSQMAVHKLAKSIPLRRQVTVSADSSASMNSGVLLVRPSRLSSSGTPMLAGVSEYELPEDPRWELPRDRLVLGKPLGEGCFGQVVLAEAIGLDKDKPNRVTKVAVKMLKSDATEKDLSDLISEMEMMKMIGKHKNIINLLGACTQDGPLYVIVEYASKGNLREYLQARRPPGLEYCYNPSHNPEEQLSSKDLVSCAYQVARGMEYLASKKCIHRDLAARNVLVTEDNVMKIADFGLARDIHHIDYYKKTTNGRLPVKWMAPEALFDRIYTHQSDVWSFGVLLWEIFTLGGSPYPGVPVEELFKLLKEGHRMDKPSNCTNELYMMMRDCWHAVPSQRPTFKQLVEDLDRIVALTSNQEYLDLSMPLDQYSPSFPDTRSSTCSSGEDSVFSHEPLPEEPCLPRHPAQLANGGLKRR

[5] = FGFR1 IC50 (nM), pre-incubated for 4 hours
[6] = read-out: FGFR1 IC50, pre-incubated for 4 hours
[7] = pre-incubated for 5 to 10 minutes

FGFR2, sequence (P21802 22-821): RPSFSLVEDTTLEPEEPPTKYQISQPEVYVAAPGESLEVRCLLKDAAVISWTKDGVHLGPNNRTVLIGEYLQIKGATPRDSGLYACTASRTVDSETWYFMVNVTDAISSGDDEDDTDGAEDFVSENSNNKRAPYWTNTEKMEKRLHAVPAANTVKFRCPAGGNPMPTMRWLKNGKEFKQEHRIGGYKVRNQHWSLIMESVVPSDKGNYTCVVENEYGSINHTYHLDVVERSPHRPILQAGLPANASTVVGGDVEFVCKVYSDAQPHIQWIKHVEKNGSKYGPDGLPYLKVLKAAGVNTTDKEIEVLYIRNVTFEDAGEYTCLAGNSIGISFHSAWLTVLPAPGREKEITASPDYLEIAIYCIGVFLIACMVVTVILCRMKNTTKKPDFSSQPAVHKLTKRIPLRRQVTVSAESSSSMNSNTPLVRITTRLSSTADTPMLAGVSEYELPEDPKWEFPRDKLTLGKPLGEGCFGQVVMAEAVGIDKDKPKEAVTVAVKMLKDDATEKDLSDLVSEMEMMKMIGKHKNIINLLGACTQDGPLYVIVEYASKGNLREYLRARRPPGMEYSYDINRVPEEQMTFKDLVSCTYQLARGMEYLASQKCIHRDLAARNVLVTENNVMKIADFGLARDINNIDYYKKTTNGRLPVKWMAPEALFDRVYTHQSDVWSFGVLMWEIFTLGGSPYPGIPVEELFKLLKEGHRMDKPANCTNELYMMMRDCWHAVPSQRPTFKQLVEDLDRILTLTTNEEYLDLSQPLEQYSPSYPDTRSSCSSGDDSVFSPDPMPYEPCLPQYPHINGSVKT

SMILES | IC50 ([1]; pre-incubated for 4 hours) | IC50 ([2]; pre-incubated for 4 hours) | FGFR1/FGFR3 IC50 ratio ([3]; pre-incubated for 4 hours) | FGFR4/FGFR3 IC50 ratio ([3]; pre-incubated for 4 hours) | IC50 ([3]; pre-incubated for 4 hours) | IC50 [4, 5] | IC50 [4, 6] | IC50 [1, 7] | IC50 [2, 7] | IC50 [3, 7] | IC50 ([4]; FGFR1 IC50 (nM), pre-incubated for 5 to 10 minutes) | FGFR1/FGFR4 IC50 ratio [2, 7] | FGFR2/FGFR4 IC50 ratio [2, 7] | FGFR3/FGFR4 IC50 ratio [2, 7] | FGFR1/FGFR4 IC50 ratio ([2]; pre-incubated for 4 hours) | FGFR2/FGFR4 IC50 ratio ([2]; pre-incubated for 4 hours) | FGFR3/FGFR4 IC50 ratio ([2]; pre-incubated for 4 hours) | IC50 ([4]; read-out: FGFR1 IC50, pre-incubated for 5 to 10 minutes)
COc1cc(OC)c(F)c(N2Cc3cnc(-c4cn(C)nc4C)cc3N(c3ccc(C#N)cc3)C2=O)c1F [Example 44, 4-(3-(2,6-difluoro-3,5-dimethoxyphenyl)-7-(1,3-dimethyl-1H-pyrazol-4-yl)-2-oxo-3,4-dihydropyrido[4,3-d]pyrimidin-1(2H)-yl)benzonitrile] | 10 to 30 nM | 30 to 200 nM | >10 | >10 | < 10 nM | 30 to 200 nM | – | – | – | – | – | – | – | – | – | – | – | –
COc1cc(OC)c(F)c(N2Cc3cnc(-c4cn(Cc5cccnc5)nc4C)cc3C3(CC3)C2=O)c1F [Example 155, 2′-(2,6-difluoro-3,5-dimethoxyphenyl)-6′-(3-methyl-1-(pyridin-3-ylmethyl)-1H-pyrazol-4-yl)-1′H-spiro[cyclopropane-1,4′-[2,7]naphthyridin]-3′(2′H)-one] | 30 to 200 nM | 30 to 200 nM | >5 | >1 | 10 to 30 nM | 30 to 200 nM | – | – | – | – | – | – | – | – | – | – | – | –
CCN1C(=O)N(c2c(F)c(OC)cc(OC)c2F)Cc2cnc(-c3ccc(C(=O)NCCO)nc3)cc21 [Example 177, 5-(3-(2,6-difluoro-3,5-dimethoxyphenyl)-1-ethyl-2-oxo-1,2,3,4-tetrahydropyrido[4,3-d]pyrimidin-7-yl)-N-(2-hydroxyethyl)picolinamide] | < 10 nM | 10 to 30 nM | >5 | >10 | < 10 nM | 10 to 30 nM | – | – | – | – | – | – | – | – | – | – | – | –
COc1cc(OC)c(F)c(N2Cc3cnc(-c4cn(CC#N)nc4C)cc3C3(CC3)C2=O)c1F [Example 153, 2-(4-(2′-(2,6-difluoro-3,5-dimethoxyphenyl)-3′-oxo-2′,3′-dihydro-1′H-spiro[cyclopropane-1,4′-[2,7]naphthyridine]-6′-yl)-3-methyl-1H-pyrazol-1-yl)acetonitrile] | 10 to 30 nM | 10 to 30 nM | >5 | >3 | < 10 nM | 30 to 200 nM | – | – | – | – | – | – | – | – | – | – | – | –
COc1cc(OC)c(F)c(N2Cc3cnc(-c4cnn(CC5CN(C(C)=O)C5)c4)cc3C3(CC3)C2=O)c1F [Example 167, 6′-(1-((1-acetylazetidin-3-yl)methyl)-1H-pyrazol-4-yl)-2′-(2,6-difluoro-3,5-dimethoxyphenyl)-1′H-spiro[cyclopropane-1,4′-[2,7]naphthyridin]-3′(2′H)-one] | < 10 nM | 10 to 30 nM | >3 | >3 | < 10 nM | – | < 10 nM | – | – | – | – | – | – | – | – | – | – | –
CCc1cnc(N2C(=O)N(c3c(F)c(OC)cc(OC)c3F)Cc3cnc(-c4cn(C)nc4C)cc32)cn1 [Example 106, 3-(2,6-difluoro-3,5-dimethoxyphenyl)-7-(1,3-dimethyl-1H-pyrazol-4-yl)-1-(5-ethylpyrazin-2-yl)-3,4-dihydropyrido[4,3-d]pyrimidin-2(1H)-one] | 30 to 200 nM | 30 to 200 nM | >3 | >5 | 10 to 30 nM | 30 to 200 nM | – | – | – | – | – | – | – | – | – | – | – | –

Other lines, results leading:

IC50 ([1]; pre-incubated for 4 hours) | IC50 ([2]; pre-incubated for 4 hours) | FGFR1/FGFR3 IC50 ratio ([3]; pre-incubated for 4 hours) | FGFR4/FGFR3 IC50 ratio ([3]; pre-incubated for 4 hours) | IC50 ([3]; pre-incubated for 4 hours) | IC50 [4, 5] | IC50 [4, 6] | IC50 [1, 7] | IC50 [2, 7] | IC50 [3, 7] | IC50 ([4]; FGFR1 IC50 (nM), pre-incubated for 5 to 10 minutes) | FGFR1/FGFR4 IC50 ratio [2, 7] | FGFR2/FGFR4 IC50 ratio [2, 7] | FGFR3/FGFR4 IC50 ratio [2, 7] | FGFR1/FGFR4 IC50 ratio ([2]; pre-incubated for 4 hours) | FGFR2/FGFR4 IC50 ratio ([2]; pre-incubated for 4 hours) | FGFR3/FGFR4 IC50 ratio ([2]; pre-incubated for 4 hours) | IC50 ([4]; read-out: FGFR1 IC50, pre-incubated for 5 to 10 minutes) | SMILES
< 10 nM | < 10 nM | >5 | >5 | < 10 nM | – | < 10 nM | – | – | – | – | – | – | – | – | – | – | – | COc1cc(OC)c(F)c(N2Cc3cnc(-c4cnn(CCCN5CCOCC5)c4)cc3C3(CC3)C2=O)c1F [Example 151, 2′-(2,6-difluoro-3,5-dimethoxyphenyl)-6′-(1-(3-morpholinopropyl)-1H-pyrazol-4-yl)-1′H-spiro[cyclopropane-1,4′-[2,7]naphthyridin]-3′(2′H)-one]
< 10 nM | < 10 nM | >5 | – | < 10 nM | 30 to 200 nM | – | – | – | – | – | – | – | – | – | – | – | – | CCN1C(=O)N(c2c(F)c(OC)cc(OC)c2F)Cc2cnc(-c3cccnc3)cc21 [Example 23, 3-(2,6-difluoro-3,5-dimethoxyphenyl)-1-ethyl-7-(pyridin-3-yl)-3,4-dihydropyrido[4,3-d]pyrimidin-2(1H)-one]
– | – | – | – | – | – | – | 10 to 30 nM | 30 to 200 nM | 10 to 30 nM | 30 to 200 nM | – | – | – | – | – | – | – | COc1cc(OC)c(F)c(N2Cc3cnc(-c4cn(C)nc4C)cc3N(Cc3ccc4c(c3)nnn4C)C2=O)c1F [Example 118, 3-(2,6-difluoro-3,5-dimethoxyphenyl)-7-(1,3-dimethyl-1H-pyrazol-4-yl)-1-((1-methyl-1H-benzo[d][1,2,3]triazol-5-yl)methyl)-3,4-dihydropyrido[4,3-d]pyrimidin-2(1H)-one]
30 to 200 nM | > 200 nM | >10 | >5 | 10 to 30 nM | – | > 200 nM | – | – | – | – | – | – | – | – | – | – | – | COc1cc(OC)c(F)c(N2Cc3cnc(-c4cn(C)nc4C)cc3N(c3cncnc3)C2=O)c1F [Example 61, 3-(2,6-difluoro-3,5-dimethoxyphenyl)-7-(1,3-dimethyl-1H-pyrazol-4-yl)-1-(pyrimidin-5-yl)-3,4-dihydropyrido[4,3-d]pyrimidin-2(1H)-one]
30 to 200 nM | 30 to 200 nM | >5 | >1 | 30 to 200 nM | – | > 200 nM | – | – | – | – | – | – | – | – | – | – | – | COc1cc(OC)c(F)c(N2Cc3cnc(-c4cnn(C5(CC#N)CN(C(C)=O)C5)c4)cc3C3(CC3)C2=O)c1F [Example 56, 2-(1-acetyl-3-(4-(2′-(2,6-difluoro-3,5-dimethoxyphenyl)-3′-oxo-2′,3′-dihydro-1′H-spiro[cyclopropane-1,4′-[2,7]naphthyridine]-6′-yl)-1H-pyrazol-1-yl)azetidin-3-yl)acetonitrile]
< 10 nM | 30 to 200 nM | >5 | >10 | < 10 nM | 30 to 200 nM | – | – | – | – | – | – | – | – | – | – | – | – | COc1cc(OC)c(F)c(N2Cc3cnc(-c4ccc(C5(C#N)CCC5)nc4)cc3N(c3ccncn3)C2=O)c1F [Example 135, 1-(5-(3-(2,6-difluoro-3,5-dimethoxyphenyl)-2-oxo-1-(pyrimidin-4-yl)-1,2,3,4-tetrahydropyrido[4,3-d]pyrimidin-7-yl)pyridin-2-yl)cyclobutanecarbonitrile]
10 to 30 nM | 30 to 200 nM | >10 | >10 | < 10 nM | 30 to 200 nM | – | – | – | – | – | – | – | – | – | – | – | – | COc1cc(OC)c(F)c(N2Cc3cnc(-c4cn(C)nc4C)cc3N(c3ccncn3)C2=O)c1F [Example 45, 3-(2,6-difluoro-3,5-dimethoxyphenyl)-7-(1,3-dimethyl-1H-pyrazol-4-yl)-1-pyrimidin-4-yl-3,4-dihydropyrido[4,3-d]pyrimidin-2(1H)-one]
30 to 200 nM | < 10 nM | >3 | – | 30 to 200 nM | – | > 200 nM | 30 to 200 nM | < 10 nM | 30 to 200 nM | – | >50 | >25 | >20 | >50 | >25 | >10 | > 200 nM | COc1cc(OC)c(F)c(N2Cc3cnc(-c4cncc(-n5ccnc5)c4)cc3C3(CC3)C2=O)c1F [Example 12, 6′-(5-(1H-imidazol-1-yl)pyridin-3-yl)-2′-(2,6-difluoro-3,5-dimethoxyphenyl)-1′H-spiro[cyclopropane-1,4′-[2,7]naphthyridin]-3′(2′H)-one]
10 to 30 nM | 30 to 200 nM | >1 | >5 | 10 to 30 nM | 30 to 200 nM | – | – | – | – | – | – | – | – | – | – | – | – | COc1cc(OC)c(F)c(N2Cc3cnc(-c4cn(C)nc4C)cc3N(c3ccc4ncsc4c3)C2=O)c1F [Example 41, 1-(1,3-benzothiazol-6-yl)-3-(2,6-difluoro-3,5-dimethoxyphenyl)-7-(1,3-dimethyl-1H-pyrazol-4-yl)-3,4-dihydropyrido[4,3-d]pyrimidin-2(1H)-one]
